Data reported in the supplement of paper PMC10883282.

Key:
Experiment in all cases: relative viability vs DMSO control (72 h) (fraction); higher = more viable cells
[1] = tested on: RD-ES
How it was run: (§1)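 After seeding at densities set for 80–90% confluence in 384-well plates, sarcoma cell lines waited 24 h before 2.5 µl of serially diluted compound was added. Source plates held 10 mM down to 0.0002 mM. Plates were incubated 72 h at 37 °C with 5% CO2, with 0.1% DMSO vehicle and a 5 µM positive control, and relative viability was taken from ATPLite as percent growth averaged over up to triplicate wells, with 1 set as full and 0 as none.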

[2] = tested on: SYO-1
How it was run: as §1

[3] = tested on: SK-ES-1
How it was run: as §1

[4] = tested on: G401
How it was run: as §1

[5] = tested on: VA-ES-BJ
How it was run: as §1

[6] = tested on: KHOS-240S
How it was run: as §1

[7] = tested on: HT1080
How it was run: as §1

[8] = tested on: RD
How it was run: as §1

[9] = tested on: SW982
How it was run: as §1

[10] = tested on: SW1353
How it was run: as §1

[11] = tested on: SK-LMS-1
How it was run: as §1

[12] = tested on: MES-SA
How it was run: as §1

CO[C@H]1C[C@@H]2CC[C@@H](C)[C@@](O)(O2)C(=O)C(=O)N2CCCC[C@H]2C(=O)O[C@H]([C@H](C)C[C@@H]2CC[C@@H](OCCO)[C@H](OC)C2)CC(=O)[C@H](C)/C=C(\C)[C@@H](O)[C@@H](OC)C(=O)[C@H](C)C[C@H](C)/C=C/C=C/C=C/1C [Certican]
Settings | relative viability
[1], 0.00017 µM | 0.967
[1], 0.00051 µM | 0.939
[1], 0.00152 µM | 0.843
[1], 0.00457 µM | 0.807
[1], 0.01372 µM | 0.772
[1], 0.04115 µM | 0.728
[1], 0.1235 µM | 0.676
[1], 0.3704 µM | 0.658
[1], 1.111 µM | 0.598
[1], 3.333 µM | 0.552
[1], 10 µM | 0.488
[2], 0.00017 µM | 0.904
[2], 0.00051 µM | 0.876
[2], 0.00152 µM | 0.852
[2], 0.00457 µM | 0.84
[2], 0.01372 µM | 0.808
[2], 0.04115 µM | 0.788
[2], 0.1235 µM | 0.755
[2], 0.3704 µM | 0.755
[2], 1.111 µM | 0.729
[2], 3.333 µM | 0.738
[2], 10 µM | 0.742
[3], 0.00017 µM | 1
[3], 0.00051 µM | 1.01
[3], 0.00152 µM | 0.983
[3], 0.00457 µM | 0.774
[3], 0.01372 µM | 0.694
[3], 0.04115 µM | 0.648
[3], 0.1235 µM | 0.592
[3], 0.3704 µM | 0.55
[3], 1.111 µM | 0.552
[3], 3.333 µM | 0.533
[3], 10 µM | 0.499
[4], 0.00017 µM | 0.9112
[4], 0.00051 µM | 0.873
[4], 0.00152 µM | 0.846
[4], 0.00457 µM | 0.825
[4], 0.01372 µM | 0.784
[4], 0.04115 µM | 0.757
[4], 0.1235 µM | 0.729
[4], 0.3704 µM | 0.701
[4], 1.111 µM | 0.683
[4], 3.333 µM | 0.668
[4], 10 µM | 0.642
[5], 0.00017 µM | 0.934
[5], 0.00051 µM | 0.855
[5], 0.00152 µM | 0.643
[5], 0.00457 µM | 0.604
[5], 0.01372 µM | 0.529
[5], 0.04115 µM | 0.494
[5], 0.1235 µM | 0.482
[5], 0.3704 µM | 0.478
[5], 1.111 µM | 0.468
[5], 3.333 µM | 0.47
[5], 10 µM | 0.46
[6], 0.00017 µM | 1.05
[6], 0.00051 µM | 1.01
[6], 0.00152 µM | 0.935
[6], 0.00457 µM | 0.889
[6], 0.01372 µM | 0.851
[6], 0.04115 µM | 0.845
[6], 0.1235 µM | 0.815
[6], 0.3704 µM | 0.786
[6], 1.111 µM | 0.784
[6], 3.333 µM | 0.75
[6], 10 µM | 0.717
[7], 0.00017 µM | 1.04
[7], 0.00051 µM | 1.04
[7], 0.00152 µM | 1.09
[7], 0.00457 µM | 1.09
[7], 0.01372 µM | 1.08
[7], 0.04115 µM | 0.985
[7], 0.1235 µM | 0.998
[7], 0.3704 µM | 1.02
[7], 1.111 µM | 1.01
[7], 3.333 µM | 1.01
[7], 10 µM | 0.922
[8], 0.00017 µM | 1.09
[8], 0.00051 µM | 1.09
[8], 0.00152 µM | 0.964
[8], 0.00457 µM | 0.888
[8], 0.01372 µM | 0.848
[8], 0.04115 µM | 0.8231
[8], 0.1235 µM | 0.773
[8], 0.3704 µM | 0.7358
[8], 1.111 µM | 0.73
[8], 3.333 µM | 0.71
[8], 10 µM | 0.657
[9], 0.00017 µM | 1
[9], 0.00051 µM | 0.882
[9], 0.00152 µM | 0.79
[9], 0.00457 µM | 0.756
[9], 0.01372 µM | 0.728
[9], 0.04115 µM | 0.68
[9], 0.1235 µM | 0.679
[9], 0.3704 µM | 0.645
[9], 1.111 µM | 0.618
[9], 3.333 µM | 0.599
[9], 10 µM | 0.604
[10], 0.00017 µM | 0.915
[10], 0.00051 µM | 0.875
[10], 0.00152 µM | 0.855
[10], 0.00457 µM | 0.772
[10], 0.01372 µM | 0.76
[10], 0.04115 µM | 0.746
[10], 0.1235 µM | 0.708
[10], 0.3704 µM | 0.71
[10], 1.111 µM | 0.696
[10], 3.333 µM | 0.677
[10], 10 µM | 0.6966
[11], 0.00017 µM | 1
[11], 0.00051 µM | 0.894
[11], 0.00152 µM | 0.759
[11], 0.00457 µM | 0.661
[11], 0.01372 µM | 0.631
[11], 0.04115 µM | 0.571
[11], 0.1235 µM | 0.549
[11], 0.3704 µM | 0.572
[11], 1.111 µM | 0.564
[11], 3.333 µM | 0.5489
[11], 10 µM | 0.512
[12], 0.00017 µM | 0.862
[12], 0.00051 µM | 0.803
[12], 0.00152 µM | 0.608
[12], 0.00457 µM | 0.489
[12], 0.01372 µM | 0.422
[12], 0.04115 µM | 0.398
[12], 0.1235 µM | 0.378
[12], 0.3704 µM | 0.373
[12], 1.111 µM | 0.377
[12], 3.333 µM | 0.358
[12], 10 µM | 0.332
